Data on four compounds can be found in patent publication US10512642B2, “Therapeutic targeting of myeloproliferative neoplasms by DUSP1 inhibition” (Children's Hospital Medical Center, priority 2015, dated 2019).

One data set concerns JAK2. Particulars: peripheral neuropathy and Wernicke encephalopathy; termination from phase III clinical trials; cited from earlier work.
Another data set concerns K562 cells. In words: Survival of K562 cells treated with imatinib +/- cytokines. In kind it is cell-based, human.
The subject of the next data set is MPN cells. In words: Colony forming unit (CFU) assay of MPN cells. Particulars: in vitro CFU assay. In kind it is cell-based, mouse. The method, then: To test this, hematopoietic CFU assays were performed using mouse bone marrow-derived Kit+ cells transduced with retroviruses expressing, pMSCV-Ires-GFP (vector), Jak2-V617F-Ires-GFP, Mpl-W515L-ires-GFP, and CSF3R-T618IIres-GFP.
Given the limitations of in vitro assays, performed in vivo experiments were then performed using bone marrow transduction transplantation assays. For in vivo analysis, mice were transplanted with 80-100 thousand bone marrow Kit^+ cells expressing Jak2-V617F-ires-GFP, CSF3R-T618I-Ires-GFP and MSCV-Ires-GFP (vector control). Mice received […] developed fatal MPD with a disease latency of 4-6 months.

In a further data set the test system is BCR/ABL induced leukemia. In words: Retroviral bone marrow transduction transplantation CML model. Particulars: mouse model of CML.

Procedure for BCR/ABL induced leukemia: Kit^+ cells from mouse bone marrow were transduced with BCR/ABL-IRES-YFP retroviruses. Five thousand GFP^+ cells were plated for in vitro CFU assays, and 40,000 YFP^+ cells were transplanted for in vivo leukemia development in lethally irradiated C57Bl6 mice. […] Data shown are from two independent transplant experiments (n p=0.017). Below, Bar graphs illustrating leukemic burden in mice transplanted with BCR-ABL Kit^+ cells, measured by the level of YFP in peripheral blood as a surrogate for BCR/ABL expression.
For in vivo analysis, mice were transplanted with 40 thousand bone marrow Kit^+ cells expressing BCR/ABL and YFP.
To test c-Fos and Dusp1 as potential drug targets, in vitro and in vivo experiments were performed using small molecule inhibitors of c-Fos and Dusp1 (FIG. 5A). […] Representative data shown are the mean colony number from two independent experiments±S.D. (*=p<0.01, **=p<0.002). […] Data shown are from two independent transplant experiments (n=12; p=0.0285).
Next, in vivo efficacy was examined using a retroviral bone marrow transduction transplantation CML model.
Procedure for K562 cells: (J) Real-time qPCR analysis illustrating expression of c-FOS, DUSP1, and ZFP36 in primary CML patient peripheral blood mononuclear cells normalized to CD34+ cells from normal volunteers (black bar). Four chronic phase (CP) and three blast crisis (BC) patients were analyzed.
BaF3 cells were generated with tetracycline-inducible expression of BCR/ABL (BaF3-LTBA, FIG. 3A), as well as those with constitutive BCR/ABL expression (BAF3-BCR/ABL, FIG. 3B).

On to `Cc1cc(Nc2nc(N[C@@H](C)c3ncc(F)cn3)ncc2Cl)n[nH]1` [AZD1480], for which the neurological toxicity result in the data set with JAK2 is listed as “profound neurological toxicities”.

Regarding `Cc1ccc(NC(=O)c2ccc(CN3CCN(C)CC3)cc2)cc1Nc1nccc(-c2cccnc2)n1` [imatinib], the “effect of erythropoietin on imatinib response” value in the data set on K562 cells is “erythropoietin conferred imatinib resistance”.

In the case of `Cc1cnc(Nc2ccc(OCCN3CCCC3)cc2)nc1Nc1cccc(S(=O)(=O)NC(C)(C)C)c1` [fedratinib], in the data set on JAK2, the neurological toxicity result is “profound neurological toxicities”.

Regarding `O=C1/C(=C/c2ccccc2)C(NC2CCCCC2)c2ccccc21` (stereo not drawn) [BCI, (E)-2-benzylidene-3-(cyclohexylamino)-2,3-dihydro-1H-inden-1-one], in the data set on MPN cells, the “targeting of MPN cells” value was “selective targeting of MPN cells”. In addition, in the data set with BCR/ABL induced leukemia, the bioavailability entry is reported as “bioavailable” and the “target inhibition in vivo” value was “inhibits its designated target”.
